What was measured:
Assay type in all cases: in vivo
barnyardgrass [1] = assay: Test Example 4: herbicidal effect in foliage treatment; details: dose 6.3 g/a, three weeks after application
Method in brief: (§1)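 Doses are given in grams per are of applied compound, sprayed as water-diluted emulsifiable concentrate onto foliage of 14-day-old plants grown at 25 to 30° C. Herbicidal activity was assessed visually on a rating scale after three weeks.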

Italian ryegrass [2] = assay: as above; details: dose 6.3 g/a, three weeks after application
Method in brief: as §1

water foxtail [3] = assay: as above; details: dose 6.3 g/a, three weeks after application
Method in brief: as §1

common ragweed [4] = assay: as above; details: dose 6.3 g/a, three weeks after application
Method in brief: as §1

redroot pigweed [5] = assay: as above; details: dose 6.3 g/a, three weeks after application
Method in brief: as §1

wild oat [6] = assay: as above; details: dose 6.3 g/a, three weeks after application
Method in brief: as §1

common chickweed [7] = assay: as above; details: dose 6.3 g/a, three weeks after application
Method in brief: as §1

large crabgrass [8] = assay: as above; details: dose 6.3 g/a, three weeks after application
Method in brief: as §1

giant foxtail [9] = assay: as above; details: dose 6.3 g/a, three weeks after application
Method in brief: as §1

beadstraw = assay: as above; details: dose 6.3 g/a, three weeks after application
Method in brief: as §1

common lambsquater [10] = assay: as above; details: dose 6.3 g/a, three weeks after application
Method in brief: as §1

barnyardgrass [11] = assay: Test Example 1: herbicidal effects in preemergence treatment under submerged conditions; details: dose 2.52 g/a
Method in brief: (§2)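 Weed seeds and 2.5-leaf rice seedlings shared each flooded cup of alluvial soil. Dosing, expressed as g per are, was by pouring water-diluted emulsifiable concentrate onto the surface on sowing day. Mortality was graded 0 to 5 after three weeks' growth.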

ducksalad [12] = assay: as above; details: dose 2.52 g/a
Method in brief: as §2

bulrush [13] = assay: as above; details: dose 2.52 g/a
Method in brief: as §2

transplanted rice = assay: Test Example 1: preemergence treatment under submerged conditions, effect on crop; details: dose 2.52 g/a
Method in brief: as §2

barnyardgrass [14] = assay: Test Example 2: herbicidal effects during the vegetation period under submerged conditions; details: treatment during the vegetation period under submerged conditions; dose 2.52 g/a
Method in brief: (§3)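 Barnyardgrass, bulrush and ducksalad were co-sown in alluvial soil flooded to 4 cm and grown in a greenhouse at 25 to 30° C. At the 1- or 2-leaf stage, water-diluted emulsifiable concentrates went onto the water surface at set doses (g/a). Herbicidal effect was scored three weeks later on a graded scale.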

ducksalad [15] = assay: as above; details: treatment during the vegetation period under submerged conditions; dose 2.52 g/a
Method in brief: as §3

bulrush [16] = assay: as above; details: treatment during the vegetation period under submerged conditions; dose 2.52 g/a
Method in brief: as §3

barnyardgrass [17] = assay: Test Example 3: herbicidal effects in soil treatment; details: dose 6.3 g/a
Method in brief: (§4)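 Seeds were sown in sterilized diluvial soil and covered with about 1.5 cm of soil. Compounds, formulated as emulsifiable concentrates and diluted with water, were sprayed evenly over the soil surface at set doses in g/a. Herbicidal effect was scored on a rating scale three weeks later.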

Italian ryegrass [18] = assay: as above; details: dose 6.3 g/a
Method in brief: as §4

water foxtail [19] = assay: as above; details: dose 6.3 g/a
Method in brief: as §4

common ragweed [20] = assay: as above; details: dose 6.3 g/a
Method in brief: as §4

redroot pigweed [21] = assay: as above; details: dose 6.3 g/a
Method in brief: as §4

wild oat [22] = assay: as above; details: dose 6.3 g/a
Method in brief: as §4

common chickweed [23] = assay: as above; details: dose 6.3 g/a
Method in brief: as §4

large crabgrass [24] = assay: as above; details: dose 6.3 g/a
Method in brief: as §4

giant foxtail [25] = assay: as above; details: dose 6.3 g/a
Method in brief: as §4

common lambsquater [26] = assay: as above; details: dose 6.3 g/a
Method in brief: as §4

Compound	A: barnyardgrass, herbicidal effect (barnyardgrass [1])	H: Italian ryegrass, herbicidal effect (Italian ryegrass [2])	G: water foxtail, herbicidal effect (water foxtail [3])	J: common ragweed, herbicidal effect (common ragweed [4])	K: redroot pigweed, herbicidal effect (redroot pigweed [5])	F: wild oat, herbicidal effect (wild oat [6])	N: common chickweed, herbicidal effect (common chickweed [7])	D: large crabgrass, herbicidal effect (large crabgrass [8])	E: giant foxtail, herbicidal effect (giant foxtail [9])	O: beadstraw, herbicidal effect (beadstraw)	L: common lambsquater, herbicidal effect (common lambsquater [10])	A: barnyardgrass, herbicidal effect (evaluation scale 0-5) (barnyardgrass [11])	C: ducksalad, herbicidal effect (evaluation scale 0-5) (ducksalad [12])	B: bulrush, herbicidal effect (evaluation scale 0-5) (bulrush [13])	a: transplanted rice, effect on crop (evaluation scale 0-5) (transplanted rice)	A: barnyardgrass, herbicidal effect (evaluation scale 0-5) (barnyardgrass [14])	C: ducksalad, herbicidal effect (evaluation scale 0-5) (ducksalad [15])	B: bulrush, herbicidal effect (evaluation scale 0-5) (bulrush [16])	A: barnyardgrass, herbicidal effect (evaluation scale 0-5) (barnyardgrass [17])	H: Italian ryegrass, herbicidal effect (evaluation scale 0-5) (Italian ryegrass [18])	further results
CC1CC(=O)N(Cc2ccccc2NS(=O)(=O)C(F)(F)F)CO1 (centres unmarked) [II-4]	5 (mortality of 90% or above (nearly complete death))	3 (mortality of at least 40% and less than 70%)	5 (mortality of 90% or above (nearly complete death))	5 (mortality of 90% or above (nearly complete death))	0 (mortality of less than 5% (almost ineffective))	0 (mortality of less than 5% (almost ineffective))	3 (mortality of at least 40% and less than 70%)	5 (mortality of 90% or above (nearly complete death))	5 (mortality of 90% or above (nearly complete death))	4 (mortality of at least 70% and less than 90%)	3 (mortality of at least 40% and less than 70%)	5 (mortality of 90% or above (nearly complete death))	5 (mortality of 90% or above (nearly complete death))	5 (mortality of 90% or above (nearly complete death))	0 (mortality of less than 5% (almost ineffective))	5 (mortality of 90% or above (nearly complete death))	5 (mortality of 90% or above (nearly complete death))	5 (mortality of 90% or above (nearly complete death))	5 (mortality of 90% or above (nearly complete death))	3 (mortality of at least 40% and less than 70%)	G: water foxtail, herbicidal effect (evaluation scale 0-5) (water foxtail [19]): 5 (mortality of 90% or above (nearly complete death)); J: common ragweed, herbicidal effect (evaluation scale 0-5) (common ragweed [20]): 4 (mortality of at least 70% and less than 90%); K: redroot pigweed, herbicidal effect (evaluation scale 0-5) (redroot pigweed [21]): 0 (mortality of less than 5% (almost ineffective)); F: wild oat, herbicidal effect (evaluation scale 0-5) (wild oat [22]): 0 (mortality of less than 5% (almost ineffective)); N: common chickweed, herbicidal effect (evaluation scale 0-5) (common chickweed [23]): 5 (mortality of 90% or above (nearly complete death)); D: large crabgrass, herbicidal effect (evaluation scale 0-5) (large crabgrass [24]): 5 (mortality of 90% or above (nearly complete death)); E: giant foxtail, herbicidal effect (evaluation scale 0-5) (giant foxtail [25]): 5 (mortality of 90% or above (nearly complete death)); L: common lambsquater, herbicidal effect (evaluation scale 0-5) (common lambsquater [26]): 4 (mortality of at least 70% and less than 90%)
CC(C)COC(=O)N(c1ccccc1CN1COC(C)(C)CC1=O)S(=O)(=O)C(F)(F)F [II-26]	4 (mortality of at least 70% and less than 90%)	3 (mortality of at least 40% and less than 70%)	5 (mortality of 90% or above (nearly complete death))	5 (mortality of 90% or above (nearly complete death))	0 (mortality of less than 5% (almost ineffective))	0 (mortality of less than 5% (almost ineffective))	3 (mortality of at least 40% and less than 70%)	4 (mortality of at least 70% and less than 90%)	4 (mortality of at least 70% and less than 90%)	4 (mortality of at least 70% and less than 90%)	0 (mortality of less than 5% (almost ineffective))	5 (mortality of 90% or above (nearly complete death))	5 (mortality of 90% or above (nearly complete death))	5 (mortality of 90% or above (nearly complete death))	0 (mortality of less than 5% (almost ineffective))	5 (mortality of 90% or above (nearly complete death))	5 (mortality of 90% or above (nearly complete death))	5 (mortality of 90% or above (nearly complete death))	5 (mortality of 90% or above (nearly complete death))	3 (mortality of at least 40% and less than 70%)	G: water foxtail, herbicidal effect (evaluation scale 0-5) (water foxtail [19]): 5 (mortality of 90% or above (nearly complete death)); J: common ragweed, herbicidal effect (evaluation scale 0-5) (common ragweed [20]): 5 (mortality of 90% or above (nearly complete death)); K: redroot pigweed, herbicidal effect (evaluation scale 0-5) (redroot pigweed [21]): 0 (mortality of less than 5% (almost ineffective)); F: wild oat, herbicidal effect (evaluation scale 0-5) (wild oat [22]): 0 (mortality of less than 5% (almost ineffective)); N: common chickweed, herbicidal effect (evaluation scale 0-5) (common chickweed [23]): 2 (mortality of at least 20% and less than 40%); D: large crabgrass, herbicidal effect (evaluation scale 0-5) (large crabgrass [24]): 5 (mortality of 90% or above (nearly complete death)); E: giant foxtail, herbicidal effect (evaluation scale 0-5) (giant foxtail [25]): 4 (mortality of at least 70% and less than 90%); L: common lambsquater, herbicidal effect (evaluation scale 0-5) (common lambsquater [26]): 0 (mortality of less than 5% (almost ineffective))
